Consider twelve compounds from US8431610B2, “Alkanoylamino benzamide aniline HDAC inhibitor compounds” (Gilead Sciences, Inc., priority 2009, dated 2013).

One assay deals with HDAC-1 (Homo sapiens, UniProt Q13547). Put plainly: HDAC inhibitory activity assay with HDAC-1 (fluorophore/quencher peptide substrate). The class given is biochemical. The settings on record: enzyme/compound mix incubated at room temperature for 2 hours; reaction about 45 minutes; fluorescence read. Here is the method: (§1) HDAC inhibitory activity of the compound of Example 1 was measured by an assay in which HDAC-1 or -3 were used as a target molecule. The test compound was suspended in and titrated in DMSO. It was then spotted into a 384-well test plate. The enzyme, HDAC-1 or -3, was diluted in assay buffer containing 25 mM Tris-HCl (pH 8.0), 137 mM NaCl, 2.7 mM KCl, and 0.01% Tween-20 and added to the pre-spotted compound. The enzyme/compound mix was incubated at room temperature for 2 hours. The peptide substrate containing a fluorophore/quencher pair was diluted in the same assay buffer and added to the compound/enzyme mix initiating the reaction. The reaction incubated at room temperature for about 45 minutes. A concentrated developer solution was diluted in the assay buffer, and added to the reaction. The reaction was incubated at room temperature for about 15 minutes and relative fluorescence was read on an instrument reader.

The next assay concerns the target HDAC-3 (Homo sapiens, UniProt O15379). Put plainly: HDAC inhibitory activity assay with HDAC-3 (fluorophore/quencher peptide substrate). The class given is biochemical. The settings on record: enzyme/compound mix incubated at room temperature for 2 hours; reaction about 45 minutes; fluorescence read. Here is the method:
as §1

HDAC-1, sequence (Q13547 whole entry, species assumed): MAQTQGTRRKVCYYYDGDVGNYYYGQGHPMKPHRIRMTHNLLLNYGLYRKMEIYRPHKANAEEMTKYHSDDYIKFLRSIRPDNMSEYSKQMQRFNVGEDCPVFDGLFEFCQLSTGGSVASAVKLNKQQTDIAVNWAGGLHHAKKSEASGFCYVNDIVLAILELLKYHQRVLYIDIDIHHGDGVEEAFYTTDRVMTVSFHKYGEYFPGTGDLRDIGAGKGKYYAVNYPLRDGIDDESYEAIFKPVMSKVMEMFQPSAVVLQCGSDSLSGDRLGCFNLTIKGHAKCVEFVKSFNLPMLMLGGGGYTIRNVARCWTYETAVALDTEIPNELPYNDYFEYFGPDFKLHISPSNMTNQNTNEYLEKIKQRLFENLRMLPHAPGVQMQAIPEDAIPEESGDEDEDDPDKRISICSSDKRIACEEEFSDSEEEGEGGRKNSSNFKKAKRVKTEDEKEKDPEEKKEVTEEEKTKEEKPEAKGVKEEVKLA
HDAC-3, sequence (O15379 whole entry, species assumed): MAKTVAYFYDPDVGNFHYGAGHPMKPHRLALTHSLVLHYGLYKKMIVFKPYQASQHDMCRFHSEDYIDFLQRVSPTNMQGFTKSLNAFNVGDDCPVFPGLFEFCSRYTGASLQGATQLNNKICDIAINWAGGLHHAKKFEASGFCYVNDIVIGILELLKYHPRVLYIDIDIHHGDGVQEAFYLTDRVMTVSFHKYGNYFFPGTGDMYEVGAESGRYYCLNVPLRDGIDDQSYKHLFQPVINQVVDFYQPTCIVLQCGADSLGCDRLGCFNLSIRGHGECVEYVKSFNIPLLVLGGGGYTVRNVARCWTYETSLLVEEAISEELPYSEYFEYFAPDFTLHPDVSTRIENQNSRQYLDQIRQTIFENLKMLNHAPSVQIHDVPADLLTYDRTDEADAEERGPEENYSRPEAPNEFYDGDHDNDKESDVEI
HDAC-3, sequence (Q9Y618 395-489 partner limits assumed, species assumed): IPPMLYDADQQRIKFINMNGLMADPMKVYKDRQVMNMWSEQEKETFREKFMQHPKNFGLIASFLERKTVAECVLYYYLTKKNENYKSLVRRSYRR

Regarding `CC(C(=O)Nc1ccc(C(=O)Nc2cc(-c3ccc(F)cc3)ccc2N)cc1)N1CCCC1` (centres unmarked) [Example 2, N-(2-Amino-5-(4-fluorophenyl)phenyl)-4-(2-(pyrrolidin-1-yl)propanamido)benzamide], the IC50 worked out at 0.003 µM on HDAC-1 and 3.11 µM on HDAC-3.
`CC(C(=O)Nc1ccc(C(=O)Nc2ccccc2N)cc1)N1CCCC1` (centres unmarked) [Example 1, N-(2-Amino-phenyl)-4-(2-pyrrolidin-1-yl-propionylamino)-benzamide] came in with an IC50 against HDAC-1 of 0.201 µM.
On to `CC(C(=O)Nc1ccc(C(=O)Nc2cc(-c3cccs3)ccc2N)cc1)N1CCCC1` (centres unmarked) [Example 3, N-(2-Amino-5-(thiophen-2-yl)phenyl)-4-(2-(pyrrolidin-1-yl)propanamido)benzamide], for which the results for the IC50 against HDAC-1 and against HDAC-3 were 0.003 µM and 2.1 µM, respectively.
On the same counts, the results for `CC(C(=O)Nc1ccc(C(=O)Nc2ccccc2N)cc1)N1CCCC1=O` (centres unmarked) [Example 4, N-(2-Aminophenyl)-4-(2-(2-oxopyrrolidin-1-yl)propanamido)benzamide] are 0.0915 µM and 0.3 µM.
Turning to `CC(C(=O)Nc1ccc(C(=O)Nc2cc(-c3ccc(F)cc3)ccc2N)cc1)N1CCCC1=O` (centres unmarked) [Example 7, N-(2-Amino-5-(4-fluorophenyl)phenyl)-4-(2-(2-oxopyrrolidin-1-yl)propanamido)benzamide], the results for the IC50 on HDAC-1 and against HDAC-3 were 0.0027 µM and 1.54 µM, respectively.
Consider `Nc1ccccc1NC(=O)c1ccc(NC(=O)C(c2ccccc2)N2CCOCC2)cc1` (centres unmarked) [Example 6, N-(2-aminophenyl)-4-(2-morpholino-2-phenylacetamido)benzamide], for which the IC50 against HDAC-1 was found to be 0.0253 µM; against HDAC-3, 0.144 µM.
On to `CC(C(=O)Nc1ccc(C(=O)Nc2cc(-c3ccc(Cl)s3)ccc2N)cc1)N1CCCC1=O` (centres unmarked) [Example 12, N-(2-Amino-5-(5-chlorothiophen-2-yl)phenyl)-4-(2-(2-oxopyrrolidin-1-yl)propanamido)benzamide], for which the values for the IC50 against HDAC-1 and against HDAC-3 were 0.0071 µM and 2.23 µM, respectively.
As to `CC(C(=O)Nc1ccc(C(=O)Nc2cc(-c3cccs3)ccc2N)cc1F)N1CCCC1=O` (centres unmarked) [Example 11, N-(2-Amino-5-(thiophen-2-yl)phenyl)-3-fluoro-4-(2-(2-oxopyrrolidin-1-yl)propanamido)benzamide], the IC50 at HDAC-1 was 0.0019 µM; on HDAC-3 it was 1.04 µM.
For the compound `CC(C)(C(=O)Nc1ccc(C(=O)Nc2cc(-c3ccc(F)cc3)ccc2N)cc1)N1CCOCC1` [Example 10, N-(2-Amino-5-(4-fluorophenyl)phenyl)-4-(2-methyl-2-morpholinopropanamido)benzamide], the IC50 turned out to be 0.0041 µM at HDAC-1 and 3.63 µM at HDAC-3.
On to `CC(C(=O)Nc1ccc(C(=O)Nc2cc(-c3ccc(F)cc3)ccc2N)cc1)N1CCOCC1` (centres unmarked) [Example 9], for which the IC50 against HDAC-1 amounted to 0.0047 µM; on HDAC-3, 3.06 µM.
For the compound `CC(C(=O)Nc1ccc(C(=O)Nc2cc(-c3cccs3)ccc2N)cc1)N1CCCC1=O` (centres unmarked) [Example 5, N-(2-Amino-5-(thiophen-2-yl)phenyl)-4-(2-(2-oxopyrrolidin-1-yl)propanamido)benzamide], the results for the IC50 against HDAC-1 and on HDAC-3 were 0.0016 µM and 1.04 µM, respectively.
On the same counts, the results for `CC(C(=O)Nc1ccc(C(=O)Nc2cc(-c3cccs3)ccc2N)cc1)N1CCOCC1` (centres unmarked) [Example 8, N-(2-Amino-5-(thiophen-2-yl)phenyl)-4-(2-morpholinopropanamido)benzamide] are 0.0028 µM and 1.35 µM.

In general, IC50 refers to the concentration that gives 50% inhibition.
